From ChEMBL document CHEMBL3988442, “University of Dundee, Small-Polar-MMV Screening Library” (2021)
“And” between values parts separate entries of the source, which are not always exact repeats. Identical values can stand only once.

What was measured:
[1] = target: T1, Tyrosyl-tRNA synthetase, putative (Trypanosoma cruzi (strain CL Brener), UniProt Q4DSP6); test: Trypanosoma cruzi tyrosyl tRNA synthetase (TcYRS) _High Tyrosine SOP; type: functional
T1 sequence (Q4DSP6 whole entry): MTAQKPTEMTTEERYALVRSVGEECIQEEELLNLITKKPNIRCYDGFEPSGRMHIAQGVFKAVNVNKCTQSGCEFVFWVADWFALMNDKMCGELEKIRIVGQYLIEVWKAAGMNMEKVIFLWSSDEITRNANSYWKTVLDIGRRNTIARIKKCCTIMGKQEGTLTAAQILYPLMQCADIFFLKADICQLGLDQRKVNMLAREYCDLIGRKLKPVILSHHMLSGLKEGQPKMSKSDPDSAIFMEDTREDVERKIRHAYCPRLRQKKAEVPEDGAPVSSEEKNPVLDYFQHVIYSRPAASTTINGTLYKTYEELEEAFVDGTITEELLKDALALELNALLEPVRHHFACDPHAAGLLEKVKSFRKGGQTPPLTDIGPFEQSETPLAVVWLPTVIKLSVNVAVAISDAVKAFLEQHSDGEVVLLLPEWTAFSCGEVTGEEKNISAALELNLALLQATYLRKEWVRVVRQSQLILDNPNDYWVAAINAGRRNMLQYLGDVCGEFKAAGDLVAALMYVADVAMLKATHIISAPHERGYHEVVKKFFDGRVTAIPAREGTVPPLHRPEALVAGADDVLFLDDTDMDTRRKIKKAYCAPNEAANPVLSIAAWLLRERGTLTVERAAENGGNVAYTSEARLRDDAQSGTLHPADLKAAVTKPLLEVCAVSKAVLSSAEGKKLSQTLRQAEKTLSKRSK

[2] = target: T1, Tyrosyl-tRNA synthetase, putative; test: Trypanosoma cruzi tyrosyl tRNA synthetase (TcYRS) SOP; type: functional
[3] = target: Protein translocase subunit SecA (Escherichia coli (strain K12), UniProt P10408); test: Assay to Identify E. coli SecA ATPase Inhibitors; type: functional
Protein translocase subunit SecA, sequence (P10408 whole entry): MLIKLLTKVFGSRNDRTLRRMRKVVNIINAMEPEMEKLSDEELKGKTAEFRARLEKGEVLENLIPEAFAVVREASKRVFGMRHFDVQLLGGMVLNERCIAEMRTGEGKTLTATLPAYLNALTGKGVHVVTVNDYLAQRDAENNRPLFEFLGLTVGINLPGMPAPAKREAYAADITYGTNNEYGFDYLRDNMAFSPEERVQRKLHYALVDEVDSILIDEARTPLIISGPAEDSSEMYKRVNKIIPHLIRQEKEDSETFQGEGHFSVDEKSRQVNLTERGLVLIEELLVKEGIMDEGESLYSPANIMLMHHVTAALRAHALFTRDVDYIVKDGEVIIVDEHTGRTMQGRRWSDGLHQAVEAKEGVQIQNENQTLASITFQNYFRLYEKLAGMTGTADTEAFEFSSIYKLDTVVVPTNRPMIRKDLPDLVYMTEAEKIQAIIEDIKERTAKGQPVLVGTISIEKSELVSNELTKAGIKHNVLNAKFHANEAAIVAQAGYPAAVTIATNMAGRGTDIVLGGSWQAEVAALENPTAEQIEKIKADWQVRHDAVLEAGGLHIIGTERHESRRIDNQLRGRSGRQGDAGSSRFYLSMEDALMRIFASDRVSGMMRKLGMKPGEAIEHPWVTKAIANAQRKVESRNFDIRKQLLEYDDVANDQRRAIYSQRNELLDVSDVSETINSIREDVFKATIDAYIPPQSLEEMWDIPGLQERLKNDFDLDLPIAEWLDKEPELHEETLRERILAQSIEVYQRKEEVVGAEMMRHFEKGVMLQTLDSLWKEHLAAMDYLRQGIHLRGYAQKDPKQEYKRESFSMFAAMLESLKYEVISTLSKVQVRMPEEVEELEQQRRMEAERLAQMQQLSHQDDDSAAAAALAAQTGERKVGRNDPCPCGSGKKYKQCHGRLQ

[4] = target: T2, Shiga toxin 2 (Escherichia coli O157:H7, UniProt P09385+P09386); test: E. coli 0.157:H7 Shiga Toxin SOP - stx2 screening assay; type: functional
T2 sequence (P09385 whole entry): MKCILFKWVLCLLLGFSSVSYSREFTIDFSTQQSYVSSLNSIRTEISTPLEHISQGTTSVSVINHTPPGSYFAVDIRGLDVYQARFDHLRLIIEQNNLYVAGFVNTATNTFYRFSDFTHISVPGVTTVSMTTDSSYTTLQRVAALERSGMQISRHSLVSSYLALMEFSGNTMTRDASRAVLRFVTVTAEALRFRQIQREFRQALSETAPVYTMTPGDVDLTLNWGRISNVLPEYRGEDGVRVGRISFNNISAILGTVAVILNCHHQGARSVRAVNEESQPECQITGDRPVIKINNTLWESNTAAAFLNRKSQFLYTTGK
T2 sequence (P09386 whole entry): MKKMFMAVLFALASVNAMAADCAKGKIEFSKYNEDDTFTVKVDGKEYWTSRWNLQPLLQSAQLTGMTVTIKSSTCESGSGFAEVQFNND

[5] = system: Leishmania donovani; test: Leishmania intramacrophage assay; type: functional, organism-based; settings: Leishmania donovani
[6] = target: Polyketide synthase Pks13 (Mycobacterium tuberculosis (strain ATCC 25618 / H37Rv), UniProt I6X8D2); test: Mycobacterium tuberculosis Polyketide synthase 13 Thioesterase (PKS13); type: functional
Polyketide synthase Pks13, sequence (I6X8D2 whole entry, the tested form may be a part): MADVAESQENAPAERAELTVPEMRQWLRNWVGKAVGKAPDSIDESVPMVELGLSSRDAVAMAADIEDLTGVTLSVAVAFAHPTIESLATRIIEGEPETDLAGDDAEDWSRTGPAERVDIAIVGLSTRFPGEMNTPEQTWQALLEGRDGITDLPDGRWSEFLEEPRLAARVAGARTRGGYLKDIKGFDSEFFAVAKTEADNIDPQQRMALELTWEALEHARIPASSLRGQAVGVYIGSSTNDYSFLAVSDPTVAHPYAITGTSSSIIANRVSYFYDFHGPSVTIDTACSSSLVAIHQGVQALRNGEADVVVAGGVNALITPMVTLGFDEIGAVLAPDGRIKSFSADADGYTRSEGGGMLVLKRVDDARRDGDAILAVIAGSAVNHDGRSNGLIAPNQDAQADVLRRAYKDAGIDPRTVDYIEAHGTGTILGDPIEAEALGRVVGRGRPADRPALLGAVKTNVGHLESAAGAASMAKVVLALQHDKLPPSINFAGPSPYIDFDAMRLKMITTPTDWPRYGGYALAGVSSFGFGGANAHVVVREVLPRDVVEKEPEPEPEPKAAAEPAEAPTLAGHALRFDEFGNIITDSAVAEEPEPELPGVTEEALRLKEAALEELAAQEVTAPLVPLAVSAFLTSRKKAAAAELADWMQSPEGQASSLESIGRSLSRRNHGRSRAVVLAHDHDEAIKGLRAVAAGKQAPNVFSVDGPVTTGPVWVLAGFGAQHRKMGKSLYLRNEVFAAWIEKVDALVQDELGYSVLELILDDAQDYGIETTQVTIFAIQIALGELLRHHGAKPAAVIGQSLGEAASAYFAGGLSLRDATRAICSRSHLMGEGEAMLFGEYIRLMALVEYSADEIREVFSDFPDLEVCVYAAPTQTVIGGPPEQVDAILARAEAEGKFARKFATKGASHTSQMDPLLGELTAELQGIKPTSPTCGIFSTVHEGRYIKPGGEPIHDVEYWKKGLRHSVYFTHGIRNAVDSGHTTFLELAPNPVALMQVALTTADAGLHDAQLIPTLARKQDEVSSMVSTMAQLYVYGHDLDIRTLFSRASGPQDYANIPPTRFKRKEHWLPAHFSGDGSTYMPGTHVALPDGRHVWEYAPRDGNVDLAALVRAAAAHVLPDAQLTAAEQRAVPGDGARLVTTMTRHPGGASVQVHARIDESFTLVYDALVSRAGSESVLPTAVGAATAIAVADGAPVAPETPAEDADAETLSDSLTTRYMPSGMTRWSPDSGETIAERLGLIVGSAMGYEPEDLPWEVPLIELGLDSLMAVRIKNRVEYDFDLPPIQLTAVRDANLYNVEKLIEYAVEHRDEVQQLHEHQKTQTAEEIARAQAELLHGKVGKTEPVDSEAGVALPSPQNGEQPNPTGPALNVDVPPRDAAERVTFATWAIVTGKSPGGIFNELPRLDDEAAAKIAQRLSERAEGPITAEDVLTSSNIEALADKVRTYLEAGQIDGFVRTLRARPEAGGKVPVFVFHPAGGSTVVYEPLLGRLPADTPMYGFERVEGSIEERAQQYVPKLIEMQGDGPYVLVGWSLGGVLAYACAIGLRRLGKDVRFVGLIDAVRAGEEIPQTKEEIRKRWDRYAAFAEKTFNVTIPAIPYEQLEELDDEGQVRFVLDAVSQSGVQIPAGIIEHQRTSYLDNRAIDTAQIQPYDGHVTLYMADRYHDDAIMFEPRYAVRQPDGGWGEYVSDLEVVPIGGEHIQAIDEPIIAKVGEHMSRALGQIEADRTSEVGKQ

[7] = target: Chromo domain-containing protein 1 (Saccharomyces cerevisiae (strain ATCC 204508 / S288c) (Baker's yeast), UniProt P32657); test: ScCHD-1 Enzyme Inhibition Assay; type: functional
Chromo domain-containing protein 1, sequence (P32657 whole entry, the tested form may be a part): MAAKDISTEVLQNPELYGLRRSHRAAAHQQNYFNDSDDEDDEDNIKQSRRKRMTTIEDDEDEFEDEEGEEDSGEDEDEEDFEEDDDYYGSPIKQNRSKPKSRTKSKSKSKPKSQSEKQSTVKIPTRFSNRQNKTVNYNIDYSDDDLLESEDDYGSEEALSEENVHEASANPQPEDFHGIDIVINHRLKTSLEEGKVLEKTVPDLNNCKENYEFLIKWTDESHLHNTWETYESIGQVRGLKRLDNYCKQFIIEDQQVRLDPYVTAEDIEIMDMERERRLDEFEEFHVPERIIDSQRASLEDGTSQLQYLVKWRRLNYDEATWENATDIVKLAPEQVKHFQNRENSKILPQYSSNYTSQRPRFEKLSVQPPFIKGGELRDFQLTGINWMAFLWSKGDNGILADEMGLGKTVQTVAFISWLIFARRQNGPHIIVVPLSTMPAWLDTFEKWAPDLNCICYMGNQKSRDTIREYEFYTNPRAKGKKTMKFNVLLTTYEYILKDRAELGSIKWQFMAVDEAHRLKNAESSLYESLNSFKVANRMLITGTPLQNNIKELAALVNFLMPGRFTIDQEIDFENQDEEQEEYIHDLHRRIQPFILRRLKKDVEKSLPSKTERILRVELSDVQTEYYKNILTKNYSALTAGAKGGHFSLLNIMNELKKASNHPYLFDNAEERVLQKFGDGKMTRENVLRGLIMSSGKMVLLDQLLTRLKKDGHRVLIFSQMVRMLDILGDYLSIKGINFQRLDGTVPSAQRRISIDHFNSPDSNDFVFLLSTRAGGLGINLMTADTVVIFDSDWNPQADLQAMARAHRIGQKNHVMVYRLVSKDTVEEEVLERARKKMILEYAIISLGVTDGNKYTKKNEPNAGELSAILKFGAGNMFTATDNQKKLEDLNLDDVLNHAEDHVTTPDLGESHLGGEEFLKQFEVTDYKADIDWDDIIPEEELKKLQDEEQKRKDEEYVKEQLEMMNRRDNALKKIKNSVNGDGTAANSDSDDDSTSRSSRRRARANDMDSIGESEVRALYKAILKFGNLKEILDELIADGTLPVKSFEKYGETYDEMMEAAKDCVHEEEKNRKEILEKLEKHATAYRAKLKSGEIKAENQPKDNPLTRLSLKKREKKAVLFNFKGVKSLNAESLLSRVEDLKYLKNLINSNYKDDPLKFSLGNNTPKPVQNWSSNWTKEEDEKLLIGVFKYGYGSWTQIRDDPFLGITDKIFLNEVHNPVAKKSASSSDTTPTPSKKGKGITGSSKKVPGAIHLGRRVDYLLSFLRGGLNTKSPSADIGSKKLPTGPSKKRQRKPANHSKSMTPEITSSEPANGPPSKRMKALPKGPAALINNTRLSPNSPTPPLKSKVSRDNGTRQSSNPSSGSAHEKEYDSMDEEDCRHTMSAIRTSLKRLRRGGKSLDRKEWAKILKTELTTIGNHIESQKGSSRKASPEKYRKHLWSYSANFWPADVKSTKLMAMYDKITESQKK

[8] = target: T3, Proteasome subunit beta (Trypanosoma cruzi, UniProt O96673); test: Trypanosoma cruzi proteasome chymotrypsin-like activity (TcProtChymo) assay.; type: functional
T3 sequence (O96673 whole entry): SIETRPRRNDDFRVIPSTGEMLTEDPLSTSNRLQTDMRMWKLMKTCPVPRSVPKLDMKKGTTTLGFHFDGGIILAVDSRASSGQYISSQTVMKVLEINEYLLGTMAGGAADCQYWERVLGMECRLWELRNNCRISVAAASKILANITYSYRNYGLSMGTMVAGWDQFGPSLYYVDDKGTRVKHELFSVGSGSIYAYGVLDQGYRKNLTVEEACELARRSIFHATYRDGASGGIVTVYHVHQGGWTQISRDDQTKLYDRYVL

[9] = Trypanosoma cruzi proteasome luciferase counter-screen; type: functional, N/A
[10] = target: T4, Aspartate--tRNA(Asp/Asn) ligase (Mycobacterium tuberculosis (strain ATCC 25618 / H37Rv), UniProt P9WFW3); test: Assay for Asp RNA synthetase-1 from Mycobacterium tuberculosis; type: functional
T4 sequence (P9WFW3 whole entry): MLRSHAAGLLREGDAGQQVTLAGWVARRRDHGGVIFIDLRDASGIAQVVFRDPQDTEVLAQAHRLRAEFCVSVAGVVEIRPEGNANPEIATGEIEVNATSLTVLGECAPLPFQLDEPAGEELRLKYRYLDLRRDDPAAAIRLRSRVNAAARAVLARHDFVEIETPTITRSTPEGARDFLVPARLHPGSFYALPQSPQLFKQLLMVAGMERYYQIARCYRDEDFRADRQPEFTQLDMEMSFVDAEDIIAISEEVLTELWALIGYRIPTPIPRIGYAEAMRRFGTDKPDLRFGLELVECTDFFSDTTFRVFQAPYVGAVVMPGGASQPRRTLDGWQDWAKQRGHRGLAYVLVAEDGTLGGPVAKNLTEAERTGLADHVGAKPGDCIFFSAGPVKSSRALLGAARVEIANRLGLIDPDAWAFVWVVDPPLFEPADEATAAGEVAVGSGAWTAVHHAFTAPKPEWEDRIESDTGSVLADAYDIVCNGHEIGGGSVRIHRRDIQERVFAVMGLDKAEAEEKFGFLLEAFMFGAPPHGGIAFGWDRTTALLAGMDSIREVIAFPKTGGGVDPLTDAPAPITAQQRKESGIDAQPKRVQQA

[11] = target: T5, Histidine--tRNA ligase (Leishmania infantum, UniProt A4I591); test: Leishmania infantum Histidine tRNA synthetase (LdHisRS); type: functional
T5 sequence (A4I591 whole entry): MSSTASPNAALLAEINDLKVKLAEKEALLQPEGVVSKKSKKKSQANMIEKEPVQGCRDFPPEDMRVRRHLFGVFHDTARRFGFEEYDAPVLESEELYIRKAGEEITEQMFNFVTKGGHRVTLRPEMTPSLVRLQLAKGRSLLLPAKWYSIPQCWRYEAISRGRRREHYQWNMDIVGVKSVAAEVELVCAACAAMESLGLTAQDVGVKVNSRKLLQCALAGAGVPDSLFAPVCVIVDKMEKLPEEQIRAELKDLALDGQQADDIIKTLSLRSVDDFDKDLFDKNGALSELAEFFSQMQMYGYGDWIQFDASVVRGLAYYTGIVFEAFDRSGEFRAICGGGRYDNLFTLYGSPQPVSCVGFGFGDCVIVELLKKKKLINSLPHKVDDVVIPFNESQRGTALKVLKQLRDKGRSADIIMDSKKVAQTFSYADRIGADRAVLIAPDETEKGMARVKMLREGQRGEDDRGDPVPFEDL

[12] = system: Schistosoma mansoni; test: High throughput screening of compounds against Schistosoma mansoni motility; type: functional; parameters: dose or concentration left out as unconfirmed
[13] = target: Lysine--tRNA ligase (Plasmodium falciparum (isolate 3D7), UniProt Q8IDJ8); test: Pf-KRS-1 (Lysyl-RNA Synthetase-1, KRS-1, cytosolic KRS) from Plasmodium falciparum. Inhibitor assay, 384 well plate, luminescence read.; type: functional
Lysine--tRNA ligase, sequence (Q8IDJ8 whole entry): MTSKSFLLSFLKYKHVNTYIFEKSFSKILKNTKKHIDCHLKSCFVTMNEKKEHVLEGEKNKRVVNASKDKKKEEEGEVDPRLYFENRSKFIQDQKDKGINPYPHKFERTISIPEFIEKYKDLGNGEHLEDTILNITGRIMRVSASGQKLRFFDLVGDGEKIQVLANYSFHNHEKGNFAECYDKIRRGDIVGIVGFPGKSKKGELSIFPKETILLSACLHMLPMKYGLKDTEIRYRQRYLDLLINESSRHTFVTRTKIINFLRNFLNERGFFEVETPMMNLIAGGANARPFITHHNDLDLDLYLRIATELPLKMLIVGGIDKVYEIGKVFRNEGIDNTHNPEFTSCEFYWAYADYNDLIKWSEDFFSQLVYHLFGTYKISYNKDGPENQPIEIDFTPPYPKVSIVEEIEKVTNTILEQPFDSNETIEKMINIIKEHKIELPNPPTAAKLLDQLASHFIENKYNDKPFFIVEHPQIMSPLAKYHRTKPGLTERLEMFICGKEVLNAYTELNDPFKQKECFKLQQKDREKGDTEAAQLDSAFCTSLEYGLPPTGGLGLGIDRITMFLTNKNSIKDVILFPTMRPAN

Compound	IC50 [1]	IC50 [2]	also measured
COc1ccc(C2SC(C)=Nc3c2c(=O)[nH]n3C2CCCCC2)cc1O (stereo not drawn)	> 100 µM	> 100 µM	–
CC1(C)OCC(CNC(=O)c2cnn(-c3ccc(Cl)cc3)c2N)O1 (stereo not drawn)	–	–	IC50 [3]: > 100 µM; IC50 [4]: > 100 µM
CC(=O)N1CCN(c2ccc3ccc(C(=O)NC4CCCC4)cn23)CC1	41.1 µM and > 100 µM	> 100 µM	–
O=C(NC1CC1)c1ccc2ccc(N3CCN(CC4CC4)CC3)n2c1	41.1 µM and > 100 µM	> 100 µM	IC50 [5]: > 50.1 µM
CN(CC1CC1)c1ccc2ccc(C(=O)NCCN3CCOCC3)cn12	94.4 µM and > 100 µM	> 100 µM	IC50 [5]: > 50.1 µM
O=C(C1=CCCC1)N1C[C@H](Oc2cccnc2)[C@H]2OCCC[C@H]21	> 100 µM	> 100 µM	–
O=C(NCc1ccccc1)N1CCC2(CC(=O)N(c3ccsc3)C2)C1 (stereo not drawn)	> 100 µM	> 100 µM	–
CNC(=O)[C@H]1CCS(=O)(=O)[C@@H]2CN(Cc3ccc(OC)cc3)C[C@H]12	> 100 µM	> 100 µM	–
COCCN1C[C@@H]2CN(c3ncccn3)C[C@@H]2C1=O	> 100 µM	> 100 µM	IC50 [6]: > 100 µM; IC50 [7]: > 29.5 µM
CN1CCc2nc(C3CCN(C(=O)CCC4CCCC4)CC3)ncc2C1	45.5 µM and 43.7 µM	46.4 µM and 43.1 µM	IC50 [8]: > 100 µM; pIC50 [9]: < 4
Cn1nc2c(cc1=O)CN(CC(=O)Nc1ccc(Cl)cn1)CC2	–	–	IC50 [10]: 90 µM and > 100 µM; IC50 [11]: 19 µM and 22.2 µM; Percent Effect [12]: -19.3%
Cc1cc(C)n(C2CN(CC(=O)N(C)Cc3ccc(C)o3)C2)n1	79.3 µM and 74.7 µM	75.8 µM and 72.1 µM	–
Cc1cc(-c2nn(C)c(Cl)c2CN2Cc3ccccc3C(O)C2)no1 (stereo not drawn)	–	–	IC50 [13]: > 50.1 µM; IC50 [11]: 16.7 µM and 20.3 µM; IC50 [4]: 41.5 µM and > 100 µM
COCCN(C)C(=O)Cn1cccc(OC)c1=O	–	–	IC50 [10]: > 100 µM; IC50 [11]: > 100 µM
CNC(=O)C1(c2cnccn2)CCCN1C(=O)c1ccn(C)n1 (stereo not drawn)	> 100 µM	> 100 µM	–
